Measured values published in patent US8513265B2, “[6,6] and [6,7]-bicyclic GPR119 G protein-coupled receptor agonists” (Bristol-Myers Squibb Company, priority 2011, dated 2013).
Structures can show the parent of a compound that is named as a salt.

Biological target: T1, GPR119 G protein-coupled receptor (Homo sapiens, UniProt Q8TDV5)
T1 construct: expressed in transfected cells; host or cells: Flp-In-T-REx 293 cells, tetracycline induced
T1 sequence (Q8TDV5 1-335): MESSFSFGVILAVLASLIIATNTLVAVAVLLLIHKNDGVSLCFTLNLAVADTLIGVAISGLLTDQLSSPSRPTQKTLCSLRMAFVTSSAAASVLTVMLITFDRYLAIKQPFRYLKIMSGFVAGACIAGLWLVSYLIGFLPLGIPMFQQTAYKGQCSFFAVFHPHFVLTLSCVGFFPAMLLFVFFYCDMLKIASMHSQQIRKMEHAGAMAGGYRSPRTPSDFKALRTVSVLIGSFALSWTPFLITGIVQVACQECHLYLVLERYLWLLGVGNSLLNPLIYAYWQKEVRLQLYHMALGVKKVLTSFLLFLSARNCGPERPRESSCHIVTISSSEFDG
Assay: Human Tet-Inducible cAMP Assay (hEC50, Table 1)
Assay type: cell-based
Set-up: IA: scale not given here
Settings: for IA: IA not defined
Method: Human Tet-Inducible cAMP Assay
Cell lines using the Flp-In-T-REx 293 tetracycline inducible gene expression system are cultured in culture medium comprising the following components: DMEM#11965, 10% FBS, 2 mM L-glutamine, 200 ug/ml Hygromycin B, and 15 ug/ml blasticidin.
For cAMP assays, cells are plated on 96 well plates (e.g., BD Falcon: REF 353948, black side, clear bottom, TC surface) at a density of about 4.5×10^4 cells per well in growth medium containing 1.0 ug/ml tetracycline (1.0 mg/ml stock). The cells are then incubated for 48 hours at 37° C.
Following the incubation, the growth medium is removed from the wells and the wells rinsed (once) with the assay buffer included in the Hit Hunter cAMP kit (100 μl/well). Following the wash, 20 μl of assay buffer is added to each well, followed by addition of 10 μl of a 3× concentration compound working solution. The solution is then mixed. The final concentration range of compound is from about 10^−5M to about 10^−11M. The reagents are then incubated at 37° C. at 5% CO2 for 1 hour.
The manufacturer's protocol may be followed for cAMP determination. The Hit Hunter cAMP kit protocol is outlined for the HIT-T15 cAMP assays described above.

Row | Compound | EC50 [nM] | IA
1 | CC(C)OC(=O)N1CCC(N2CCOc3c(Nc4ccc(C(N)=O)cc4Cl)ncnc32)CC1 [Example 49, iso-Propyl 4-(4-(4-carbamoyl-2-chlorophenylamino)-6H-pyrimido[5,4-b][1,4]oxazin-8(7H)-yl)piperidine-1-carboxylate] | 196 | 0.67
2 | Cc1cc(C#N)ccc1Nc1ncnc2c1OCCN2C1CCN(C(=O)OC(C)C)CC1 [Example 134, Isopropyl 4-(4-(4-cyano-2-methylphenylamino)-6H-pyrimido[5,4-b][1,4]oxazin-8(7H)-yl)piperidine-1-carboxylate] | 163 | 0.59
3 | CC(C)(C)OC(=O)N1CCC(N2CCOc3c(Nc4c(Cl)cncc4Cl)ncnc32)CC1 [Example 55, tert-Butyl 4-(4-(3,5-dichloropyridin-4-ylamino)-6H-pyrimido[5,4-b][1,4]oxazin-8(7H)-yl)piperidine-1-carboxylate] | 11.1 | 0.72
4 | CCC(C)OC(=O)N1CCC(N2CCOc3c(Nc4ccc(S(C)(=O)=O)cc4F)ncnc32)CC1 (racemic) [Example 146, (±)-sec-Butyl 4-(4-(2-fluoro-4-(methylsulfonyl)phenylamino)-6H-pyrimido[5,4-b][1,4]oxazin-8(7 H)-yl)piperidine-1-carboxylate, TFA salt] | 8.52 | 0.88
5 | CC(C)(C)OC(=O)N1CCC(N2CCOc3c(Nc4ccc(-n5ccnc5)cc4Cl)ncnc32)CC1 [Example 154, tert-Butyl 4-(4-(2-chloro-4-(1H-imidazol-1-yl)phenylamino)-6H-pyrimido[5,4-b][1,4]oxazin-8(7H)-yl)piperidine-1-carboxylate] | 12.9 | 0.65
6 | Cc1ncccc1Oc1ncnc2c1OCCN2C1CCN(C(=O)OC(C)C)CC1 [Example 25, iso-Propyl 4-(4-(2-methylpyridin-3-yloxy)-6H-pyrimido[5,4-b][1,4]oxazin-8(7H)-yl)piperidine-1-carboxylate] | 4520 | 0.27
7 | Cc1ncccc1Nc1cccc2c1OCCN2C1CCN(C(=O)OC(C)(C)C)CC1 [Example 76, tert-Butyl 4-(8-(2-methylpyridin-3-ylamino)-2H-benzo[b][1,4]oxazin-4 (3H)-yl)piperidine-1-carboxylate] | 3390 | 0.38
8 | CC(C)(C)OC(=O)N1CCC(N2CCOc3c(Nc4ccc(C(N)=O)cc4Cl)ncnc32)CC1 [Example 47, tert-Butyl 4-(4-(4-carbamoyl-2-chlorophenylamino)-6H-pyrimido[5,4-b][1,4]oxazin-8(7H)-yl)piperidine-1-carboxylate] | 163 | 0.78
9 | CC(C)OC(=O)N1CCC(N2CCOc3c(Nc4ccncc4Cl)ncnc32)CC1 [Example 120, Isopropyl 4-(4-(3-chloropyridin-4-ylamino)-6H-pyrimido[5,4-b][1,4]oxazin-8(7H)-yl)piperidine-1-carboxylate] | 181 | 0.45
10 | CC(C)(C)OC(=O)N1CCC(N2C(=O)COc3c(Nc4ccc(S(C)(=O)=O)cc4F)ncnc32)CC1 [Example 26, tert-Butyl 4-(4-(2-fluoro-4-(methylsulfonyl)phenylamino)-7-oxo-6H-pyrimido[5,4-b][1,4]oxazin-8(7H)-yl)piperidine-1-carboxylate] | 8.06 | 0.51
11 | CC(C)(C)OC(=O)N1CCC(N2CCCOc3c(Nc4ccncc4)ncnc32)CC1 [Example 100, tert-Butyl 4-(4-(pyridin-4-ylamino)-7,8-dihydropyrimido[5,4-b][1,4]oxazepin-9(6H)-yl)piperidine-1-carboxylate] | 3450 | 0.53
12 | CC(C)(C)OC(=O)N1CCC(N2CCCOc3c(Nc4c(Cl)cncc4Cl)ncnc32)CC1 [Example 89, tert-Butyl 4-(4-(3,5-dichloropyridin-4-ylamino)-7,8-dihydropyrimido[5,4-b][1,4]oxazepin-9(6H)-yl)piperidine-1-carboxylate] | 10.3 | 0.65
13 | CC(C)OC(=O)N1CCC(N2C(=O)CCc3c(Nc4ccc(S(C)(=O)=O)cc4F)ncnc32)CC1 [Example 118, Isopropyl 4-(4-(2-fluoro-4-(methylsulfonyl)phenylamino)-7-oxo-6,7-dihydropyrido[2,3-d]pyrimidin-8 (5H)-yl)piperidine-1-carboxylate] | 179 | 0.63
14 | CC(C)(OC(=O)N1CCC(N2CCOc3c(Nc4ccc(S(C)(=O)=O)cc4F)ncnc32)CC1)C(F)(F)F [Example 143] | 9.74 | 0.41
15 | CC(C)(C)OC(=O)N1CCC(N2CCOc3c(Nc4ccc(S(C)(=O)=O)cc4Cl)ncnc32)CC1 [Example 7, tert-Butyl 4-(4-(2-chloro-4-(methylsulfonyl)phenylamino)-6H-pyrimido[5,4-b][1,4]oxazin-8(7H)-yl)piperidine-1-carboxylate] | 2.78 | 0.81
16 | COc1ccc(Nc2ncnc3c2OCCN3C2CCN(C(=O)OC(C)C)CC2)cc1 [Example 128, Isopropyl 4-(4-(4-methoxyphenylamino)-6H-pyrimido[5,4-b][1,4]oxazin-8(7H)-yl)piperidine-1-carboxylate] | 3590 | 0.7
17 | Cc1ccc(Nc2ncnc3c2OCC(=O)N3C2CCN(C(=O)OC(C)C)CC2)cn1 [Example 72, iso-Propyl 4-(4-(6-methylpyridin-3-ylamino)-7-oxo-6H-pyrimido[5,4-b][1,4]oxazin-8(7H)-yl)piperidine-1-carboxylate] | 8580 | 0.34
18 | COC(=O)c1ccc(Nc2ncnc3c2OCCN3C2CCN(C(=O)OC(C)(C)C)CC2)c(Cl)c1 [Example 45, tert-Butyl 4-(4-(2-chloro-4-(methoxycarbonyl)phenylamino)-6H-pyrimido[5,4-b][1,4]oxazin-8(7H)-yl)piperidine-1-carboxylate] | 158 | 0.63
19 | CS(=O)(=O)c1ccc(Nc2ncnc3c2OCCN3C2CCN(C(=O)OCC(F)(F)F)CC2)c(F)c1 [Example 145, 2,2,2-Trifluoroethyl 4-(4-(2-fluoro-4-(methylsulfonyl)phenylamino)-6H-pyrimido[5,4-b][1,4]oxazin-8(7H)-yl)piperidine-1-carboxylate, TFA salt] | 11.4 | 0.87
20 | CC(C)OC(=O)N1CCC(N2CCOc3c(Nc4ccc5c(c4)OCO5)ncnc32)CC1 [Example 132, Isopropyl 4-(4-(benzo[d][1,3]dioxol-5-ylamino)-6H-pyrimido[5,4-b][1,4]oxazin-8(7H)-yl)piperidine-1-carboxylate] | 3400 | 0.37
21 | CS(=O)(=O)c1ccc(Nc2ncnc3c2OCCN3C2CCN(c3nc4ccccc4s3)CC2)c(F)c1 [Example 18, 8-(1-(Benzo[d]thiazol-2-yl)piperidin-4-yl)-N-(2-fluoro-4-(methylsulfonyl)phenyl)-7,8-dihydro-6H-pyrimido[5,4-b][1,4]oxazin-4-amine] | 198 | 0.46
22 | Cc1ccc(Nc2ncnc3c2OCC(=O)N3C2CCN(C(=O)OC(C)(C)C)CC2)cn1 [Example 69, tert-Butyl 4-(4-(6-methylpyridin-3-ylamino)-7-oxo-6H-pyrimido[5,4-b][1,4]oxazin-8(7H)-yl)piperidine-1-carboxylate] | 4310 | 0.35
23 | CC(C)OC(=O)N1CCC(N2C(=O)COc3c(Nc4cccnc4Cl)ncnc32)CC1 [Example 127, Isopropyl 4-(4-(2-chloropyridin-3-ylamino)-7-oxo-6H-pyrimido[5,4-b][1,4]oxazin-8(7H)-yl)piperidine-1-carboxylate] | 6180 | 0.52
24 | COc1ccc(Nc2ncnc3c2OCCN3C2CCN(C(=O)OC(C)C)CC2)c(F)c1 [Example 15, iso-Propyl 4-(4-(2-fluoro-4-methoxyphenylamino)-6H-pyrimido[5,4-b][1,4]oxazin-8(7H)-yl)piperidine-1-carboxylate] | 188 | 0.48
